The values below come from publication PMC12567082, “Silver(I) Complexes Bearing S-Alkyl Thiosalicylic Acid Derivatives: DNA/BSA Binding and Antitumor Activity In Vitro and In Vivo” (Pharmaceutics, 2025).

Broadly, the IC50 is the concentration needed to halve the response being measured. A lower IC50 goes with greater potency in that assay.

One data set concerns CT-DNA. The data set can be described thus: EB–CT-DNA fluorescence quenching. The format is binding, calf. The note with it: EB–CT-DNA 8.52 × 10^−5 M, PBS pH 7.4. As for the experimental part:
All samples were prepared in phosphate-buffered saline (PBS, pH 7.4). Stern–Volmer Equation (2) was used to interpret the fluorescence quenching data.

Another data set concerns the target T1, BSA (Bos taurus, UniProt P02769).
T1 construct: purchased Sigma-Aldrich
The data set can be described thus: BSA tryptophan fluorescence quenching. The format is binding, bovine. The method, then: The protein binding study was carried out using tryptophan fluorescence quenching experiments with BSA. […] Fluorescence emission spectra were recorded between 300 and 500 nm, with excitation at 295 nm.
The quenching constant Ksv was determined based on the Stern–Volmer relationship, as described by Equation (3):I0/I = 1 + kqτ0[Q] = 1 + Ksv[Q](3)
In this equation, I0 and I refer to the fluorescence intensities of BSA measured without and with the quencher (complex), τ0 represents the average fluorescence lifetime of free BSA (∼10^−8 s), and [Q] indicates the quencher concentration.
Parameters such as association binding constant (K) and the number of binding sites per albumin (n) were obtained from Scatchard Equation (4):(ΔI/I0)/[Q] = nK − KΔI/I0(4)
To minimize inner filter, both intensities of fluorescence originating from excitation and emission light absorption and re-absorption were corrected by employing Equation (5); Icor and Iobs are the corrected and observed fluorescence intensities, respectively, and Aex and Aem represent the absorbance of the metal complex at the excitation and emission wavelengths, respectively.Icor = Iobs · […]^(Aex + Aem)/2(5)

Data set [1] relates to human fibroblast cell lines (MRC-5). The data set can be described thus: MTT assay MRC-5. The format is cell-based. As for the experimental part:
Mouse breast cancer (4T1), human breast cancer (MDA-MB-468), mouse colon cancer (CT26), human colon cancer (HCT-116), mouse lung cancer (LLC1), human lung cancer (A549), mouse mesenchymal stem cells (mMSC), and human fibroblast cell lines (MRC-5) were used in this study and were consistently cultured in complete Dulbecco’s Modified Eagle Medium (DMEM) (Sigma-Aldrich, St. Louis, MO, USA) in incubator (5% CO2) under standard conditions. Complete DMEM was Dulbecco’s Modified Eagle Medium supplemented with 10% fetal bovine serum (FBS), 1 mmol/L penicillin–streptomycin, 1 mmol/L mixed nonessential amino acids, and 2 mmol/L L-glutamine (Sigma-Aldrich, St. Louis, MO, USA). All cancer cell lines and MRC-5 cell line were obtained from American Type Culture Collection (ATCC, Manassas, VA, USA), but mMSC was manufactured by Gibco (Middlesex County, MA, USA).
In 96-well microplates, we seeded cancer and non-cancer cells, more exactly 5 × 10^3 cells per well in 100 μL of complete DMEM (Sigma-Aldrich, St. Louis, MO, USA). […] Tested concentration range for all metal-based substances was 3.9–500 μM. After incubation with MTT solution (5 mg/mL; pH 7.2) for 4 h, optical density was determined using Zenyth 3100 microplate multimode detector (Salzburg, Austria). All experiments were performed three times, each in triplicate, and the IC50 values as well as selectivity indexes (IC50 for mMSC or MRC-5/IC50 for mouse or human cancer cells) were calculated.
(In general: Formazan colour is commonly taken as a measure of viable cells.)

Another data set relates to BALB/C female mice. The data set can be described thus: In vivo toxicity (serum biochemistry, liver and kidney histology). The note with it: day 30. The method, then: Ethics Committee of the Faculty of Medical Sciences of the University of Kragujevac, Serbia, approved all experiments (01-5301/11). ARRIVE guidelines and EU Directive 2010/63/EU for animal experiments were followed. Experimental animals, BALB/C female mice (8–10 weeks old), were housed under standard conditions (temperature-controlled environment, a 12 h light–dark cycle, fed ad libitum, and observed daily) throughout whole duration of experiment. Animals were inoculated with 4T1 cells (3 × 10^4) into the fourth mammary fat pad as previously described. Animals were randomly assigned to experimental or control groups, and after palpable tumors were detected, the pharmacological treatments were started. Female BALB/C mice intraperitoneally received either C3 (3 mg/kg), C3 (6 mg/kg), CDDP (6 mg/kg), or vehicle in distilled water with 0.05% DMSO (Sigma-Aldrich, St. Louis, MO, USA) (untreated group) in five single doses every third day (8 animals per group). Using electronic calipers (Moore and Wright, Sheffield, UK), the sizes of primary 4T1 mammary tumors were morphometrically evaluated. On the 30th day of experiment, animals were sacrificed, blood was collected (for determination of serum levels of ALT, AST, urea, and creatinine), and tissue sections (liver and kidney) were stained with H&E for further analysis. Liver or kidney sections were analyzed by two observers, and the injury levels were determined as previously reported.

For data set [2], the system named is 4T1 cells. Briefly: Cell cycle distribution. The format is cell-based, mouse. The note with it: 0.5 µM, 24 h. As for the experimental part: After reaching optimal confluency, 4T1 cells were allowed to grow in the presence of 0.5 µM of C3 or DMEM only (control 4T1 cells) for next 24 h. According to manufacturer’s recommendation, cells were stained with Vybrant® DyeCycle^TM Ruby stain (Thermo Fisher Scientific, Waltham, MA, USA) in order to perform cell cycle analysis. The analysis was carried out on FACSCalibur Flow Cytometer (BD Biosciences, San Jose, CA, USA), and data were analyzed using FlowJo software (version 10.7.2; Tree Star Inc. Ashland, OR, USA).

In data set [3] the test system is 4T1 cells. The data set can be described thus: Flow cytometry of apoptosis and proliferation markers. The conditions noted are these: 0.5 µM, 24 h, vs untreated. The format is cell-based, mouse. As for the experimental part: Flow cytometry was performed on 4T1 cells treated with 0.5 µM of C3 for 24 h or untreated cells. After treatment, cells were incubated with antibodies specific for Bax (Abcam Cambridge, Cambridge, UK), Bcl-2 (Abcam Cambridge, UK), BclXL (Thermo Fisher Scientific, Waltham, MA, USA), MCL-1 (Thermo Fisher Scientific, Waltham, MA, USA) caspase 3 (Abcam Cambridge, UK), Ki-67 (eBioscience, San Diego, CA, USA), cyclin D3 (Abcam Cambridge, UK), p21 (Abcam Cambridge, UK), p16 (Abcam Cambridge, UK), and p27 (Abcam Cambridge, UK) and secondary antibodies as previously described. FACSCalibur Flow Cytometer (BD Biosciences, San Jose, CA, USA) was used for flow cytometry, and the data were analyzed using FlowJo (version 10.7.2; Tree Star Inc. Ashland, OR, USA).
(In general: A flow cytometer gives signals particle by particle.)

The test system of data set [4] is 4T1 cells. The data set can be described thus: Scratch assay. The conditions noted are these: 0.5 µM, after 12 and 24 h, vs untreated. The format is cell-based, mouse. The method, then: In order to determine migratory capacity of C3-treated 4T1 cells, scratch assay was performed as previously described. Once 4T1 cells formed a confluent monolayer, an injury was made, and first representative images were taken immediately. Further 4T1 cells were exposed to C3 (0.5 µM) or DMEM only (untreated cells), and observation under inverted optical microscope (Olympus, Tokyo, Japan) was made after 4 h, 12 h, and 24 h. Scratch width was quantified by ImageJ (version 1.54.0 NIH, Madison, WI, USA).

T1 sequence (P02769 25-607): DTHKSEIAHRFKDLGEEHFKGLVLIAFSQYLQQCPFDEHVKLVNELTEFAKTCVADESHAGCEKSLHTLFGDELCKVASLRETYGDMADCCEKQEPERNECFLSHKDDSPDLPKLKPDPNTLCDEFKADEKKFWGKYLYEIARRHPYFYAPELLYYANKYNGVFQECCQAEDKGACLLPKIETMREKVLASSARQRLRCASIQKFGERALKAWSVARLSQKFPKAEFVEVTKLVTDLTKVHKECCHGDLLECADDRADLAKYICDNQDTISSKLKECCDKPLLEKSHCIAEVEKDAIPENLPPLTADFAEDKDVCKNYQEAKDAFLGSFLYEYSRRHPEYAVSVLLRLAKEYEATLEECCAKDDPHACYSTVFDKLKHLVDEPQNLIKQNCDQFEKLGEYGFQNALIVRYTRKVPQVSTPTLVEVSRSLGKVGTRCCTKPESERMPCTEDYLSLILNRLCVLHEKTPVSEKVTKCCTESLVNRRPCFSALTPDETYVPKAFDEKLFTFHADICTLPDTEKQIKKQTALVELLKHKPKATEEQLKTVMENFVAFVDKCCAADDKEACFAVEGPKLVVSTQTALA

As for `CCCSc1ccccc1C(=O)[O][Ag].CCCSc1ccccc1C(=O)[O][Ag]` [C3, [Ag2(S-propyl-thiosal)2]], in the data set on CT-DNA, the “Ksv EB (Stern–Volmer constant)” value is “(1.4 ± 0.1) × 10^4 M^−1”. For the same compound, the “kq (quenching rate constant)” value at BSA (BSA 2 µM) is listed as “(9.6 ± 0.1) × 10^12 M^−1 s^−1”. The “Ksv (Stern–Volmer constant)” value at BSA (BSA 2 µM, λex 295 nm) is reported as “(9.6 ± 0.1) × 10^4 M^−1”. Besides, on BSA (Scatchard equation), the “K (binding constant)” value was “(1.1 ± 0.1) × 10^5 M^−1” and the “n (number of binding sites)” value is recorded as 1.1. The same compound showed a 50% inhibitory concentration (IC50) in data set [1] (MRC-5, 24 h) of 38.1 ± 1.13 µM. For the same compound, inhibition in data set [1] (MRC-5, 48 h) was half-maximal at 43.3 ± 1.1 µM (IC50). Further, in the data set with BALB/C female mice (C3 3 and 6 mg/kg vs CDDP 6 mg/kg), the “kidney injury scores compared to CDDP-treated animals” value is on record as “significantly lower”. The “liver injury histological score (Knodel score) vs untreated animals” value in the data set on BALB/C female mice (C3 3 and 6 mg/kg, H&E) is recorded as “did not reveal a significant difference”. For the same compound, in the data set on 4T1 cells [2], the “percentage of 4T1 cells in G0/G1 phase” value was “significantly increased” and the “percentage of 4T1 cells in S phase” value is listed as “decreased”. In addition, the Bax/Bcl-2 ratio entry with 4T1 cells [3] is recorded as “higher”. In addition, the “migration ability of 4T1 cells” value in the data set with 4T1 cells [4] was “significantly reduced”.
